According to patent EP3050567B1, “COMPOUND FOR ACTIVATING AMPK AND USES THEREOF” (Energenesis Biomedical Co., Ltd., priority 2013, dated 2015):

What was measured:
AMPK [1] = test: AMPK activation assay (phospho-AMPK Thr172 western blot) in C2C12 cells; format: cell-based, Mouse; conditions: 30 min
Procedure: (§1) Effects of adenine on AMPK activation were evaluated based on the phosphorylation of AMPK protein upon adenine treatment. Mouse muscle cell C2C12, mouse fibroblast 3T3, human liver carcinoma cell Hep G2, human breast adenocarcinoma cell line MCF7 and human colon adenocarcinoma grade II cell line HT29, human umbilical vein endothelial cell HUVEC, Human acute monocytic leukemiacell THP1, human macrophage cell U937, murine microglia cell BV-2, and mouse neuroblastoma cell Neuro2A and dermal papilla cell were cultured in high-glucose Dulbecco's modified Eagle's medium (DMEM) containing 10% fetal bovine serum (FBS), 4 mM L-glutamine, 2 mM sodium pyruvate and 1% penicillin/streptomycin (Invitrogen GibcoBRL, Carlsbad, Calif., USA) at 37°C, under 5% CO2. Cells were plated at 3 × 10^5 per well in 6-well plates. Twenty-four hours after plating, adenine was added to the culture media as indicated. After 30 min cells were lysed and subject to western blot analysis. Equal amount of protein from each sample was separated by SDS-PAGE and then electroblotted on to PVDF membranes. Membranes were blocked with 3% BSA in PBS for 60 min and incubated with an anti-phospho-AMPK (Thr172) antibody (1:2,000, Cell signaling) or an anti-AMPK antibody (1:2,000, Cell signaling) at 4°C for 16 h followed by the corresponding secondary antibody for 1 h at room temperature (RT). Immunoreactive bands were detected by enhanced chemiluminescence and recorded using Kodak film. The detected signals were scanned and then quantified using TotalLab Quant software (TotalLab).

AMPK [2] = test: AMPK activation assay (phospho-AMPK Thr172 western blot) in 3T3 cells; format: cell-based, mouse; conditions: 30 min
Procedure: as §1

AMPK [3] = test: AMPK activation assay (phospho-AMPK Thr172 western blot) in THP1 cells; format: cell-based, Human; conditions: 30 min
Procedure: as §1

AMPK [4] = test: AMPK activation assay (phospho-AMPK Thr172 western blot) in U937 cells; format: cell-based, human; conditions: 30 min
Procedure: as §1

AMPK [5] = test: AMPK activation assay (phospho-AMPK Thr172 western blot) in BV-2 cells; format: cell-based, murine; conditions: 30 min
Procedure: as §1

TNFα = test: LPS-induced inflammatory response in THP1 macrophages, secreted TNFα (ELISA); format: cell-based, human; conditions: 50 ng LPS 6 hr
Procedure: (§2) Effects of adenine on inflammatory response were evaluated in human THP1 macrophage by examining protein level of intracellular COX-2 and secreted TNFα, IL-1β and IL-6. Differentiation of THP1 monocytes into macrophages was induced by 50 nM PMA for 24 hr. THP1 macrophages were further stimulated by 50 ng LPS for 6 hr in the presence of 10-600 µM of adenine or vehicle followed by cell lysis and western blot analysis. Equal amounts of protein were separated by SDS-PAGE and then electroblotted on to PVDF membranes. Membranes were blocked with 3% BSA in PBS for 60 min and incubated with an anti-COX-2 antibody (1:1,000, Cell signaling), an anti-actin antibody (1:5,000, Cell signaling) at 4° C for 16 h followed by the corresponding secondary antibody for 1 h at room temperature (RT). Immunoreactive bands were detected by enhanced chemiluminescence and recorded using Kodak film. The detected signals were scanned and then quantified using TotalLab Quant software (TotalLab). The secreted TNFα, IL-1β and IL-6 were analyzed by enzyme-linked immunosorbent assays.

IL-1β = test: LPS-induced inflammatory response in THP1 macrophages, secreted IL-1β (ELISA); format: cell-based, human; conditions: 50 ng LPS 6 hr
Procedure: as §2

COX-2 = test: LPS-induced inflammatory response in THP1 macrophages, intracellular COX-2 (western blot); format: cell-based, human; conditions: 50 ng LPS 6 hr
Procedure: as §2

Amyloid β peptide = Amyloid β peptide assay in Neuro2A cells transfected with human APP695 (western blot); format: cell-based, mouse; conditions: 24 h
Procedure: (§3) Effects of adenine on Amyloid β peptide were analyzed in mouse neuroblastoma cell Neuro2A. Neuro2A cells were cultured in high-glucose Dulbecco's modified Eagle's medium (DMEM) containing 10% fetal bovine serum (FBS), 4 mM L-glutamine, 2 mM sodium pyruvate and 1% penicillin/streptomycin (Invitrogen GibcoBRL, Carlsbad, Calif., USA) at 37°C under 5% CO2. Cells were plated at 3 × 10^5 per well (6-well plate). 24 h after plating, cells were transfected with human APP695 and treated with indicated concentration of adenine for 24 h followed by cell lysis and western blot analysis. Equal amounts of protein were separated by SDS-PAGE and then electroblotted on to PVDF membranes. Membranes were blocked with 3% BSA in PBS for 60 min and incubated with an anti-Aβ antibody (1:1,000, abcam), an anti-LC3 antibody (1:1,000, Cell signaling), and an anti-actin antibody (1:5,000, Cell signaling) at 4°C for 16 h followed by the corresponding secondary antibody for 1 h at room temperature (RT). Immunoreactive bands were detected by enhanced chemiluminescence and recorded using Kodakfilm. The detected signals were scanned and then quantified by using TotalLab Quant software (TotalLab).

LC3 = test: Autophagy assay (LC3-II/LC3-I western blot) in Neuro2A cells; format: cell-based, mouse; conditions: 24 h
Procedure: as §3

Hep G2 = test: Cancer cell growth inhibition assay, Hep G2; format: cell-based; conditions: Homo sapiens; HepG2 cell proliferation, 72 h, cell counting
Procedure: Human liver hepatocellular carcinoma cell line Hep G2, human breast adenocarcinoma cell line MCF7 and human colon adenocarcinoma grade II cell line HT29 were used to evaluate the effects of adenine on cell proliferation. Those cell lines were obtained from ATCC and were cultured in high-glucose Dulbecco's modified Eagle's medium (DMEM) containing 10% fetal bovine serum (FBS), 4 mM L-glutamine, 2 mM sodium pyruvate and 1% penicillin/streptomycin (Invitrogen GibcoBRL, Carlsbad, Calif., USA) at 37°C under 5% CO2. Cells were plated at 1 × 10^5 per well (6-well plate). Twenty-four hours after plating, cells were treated with indicated concentration of adenine for 72 h and then followed by cell counting. Cells were detached using trypsin-EDTA solution and stained with trypan blue. The living cells were counted using hemocytometer.

Question: Which “AMPK activation (fold to control)” value (AMPK [1]; adenine 1 microM) does the source give for `Nc1ncnc2nc[nH]c12` [Adenine, adenine] here?
Answer: 1.2 fold to control

Question: What about the “AMPK activation (fold to control)” value (AMPK [1]; adenine 10 microM) of the same molecule?
Answer: 1.7 fold to control

Question: And the “AMPK activation (fold to control)” value (AMPK [1]; adenine 100 microM)?
Answer: 3.2 fold to control

Question: What about the “AMPK activation (fold to control)” value (AMPK [1]; adenine 200 microM) of the same molecule?
Answer: 3.9 fold to control

Question: And the “AMPK activation (fold to control)” value (AMPK [1]; adenine 600 microM)?
Answer: 4.1 fold to control

Question: And the “AMPK activation (fold to control)” value (AMPK [2]; adenine 1 microM)?
Answer: 1.1 fold to control

Question: And the “AMPK activation (fold to control)” value (AMPK [2]; adenine 10 microM)?
Answer: 1.5 fold to control

Question: And the “AMPK activation (fold to control)” value (AMPK [2]; adenine 100 microM)?
Answer: 2.9 fold to control

Question: And the “AMPK activation (fold to control)” value (AMPK [2]; adenine 200 microM)?
Answer: 4.0 fold to control

Question: And the “AMPK activation (fold to control)” value (AMPK [2]; adenine 600 microM)?
Answer: 4.2 fold to control

Question: And the “AMPK activation (fold to control)” value (AMPK [3]; adenine 1 microM)?
Answer: 1.2 fold to control

Question: What about the “AMPK activation (fold to control)” value (AMPK [3]; adenine 10 microM) of the same molecule?
Answer: 2.2 fold to control

Question: What about the “AMPK activation (fold to control)” value (AMPK [3]; adenine 100 microM) of the same molecule?
Answer: 3.7 fold to control

Question: And the “AMPK activation (fold to control)” value (AMPK [3]; adenine 200 microM)?
Answer: 4.3 fold to control

Question: What about the “AMPK activation (fold to control)” value (AMPK [3]; adenine 600 microM) of the same molecule?
Answer: 4.2 fold to control

Question: What about the “AMPK activation (fold to control)” value (AMPK [4]; adenine 1 microM) of the same molecule?
Answer: 1.1 fold to control

Question: And the “AMPK activation (fold to control)” value (AMPK [4]; adenine 10 microM)?
Answer: 1.3 fold to control

Question: What about the “AMPK activation (fold to control)” value (AMPK [4]; adenine 100 microM) of the same molecule?
Answer: 2.9 fold to control

Question: And the “AMPK activation (fold to control)” value (AMPK [4]; adenine 200 microM)?
Answer: 3.7 fold to control

Question: What about the “AMPK activation (fold to control)” value (AMPK [4]; adenine 600 microM) of the same molecule?
Answer: 4.0 fold to control

Question: And the “AMPK activation (fold to control)” value (AMPK [5]; adenine 1 microM)?
Answer: 1.2 fold to control

Question: And the “AMPK activation (fold to control)” value (AMPK [5]; adenine 10 microM)?
Answer: 1.7 fold to control

Question: What about the “AMPK activation (fold to control)” value (AMPK [5]; adenine 40 microM) of the same molecule?
Answer: 2.6 fold to control

Question: What about the “AMPK activation (fold to control)” value (AMPK [5]; adenine 160 microM) of the same molecule?
Answer: 3.2 fold to control

Question: What about the “TNFα (% to control)” value (TNFα; adenine 10 microM) of the same molecule?
Answer: 85±9.1 % to control

Question: What about the “TNFα (% to control)” value (TNFα; adenine 100 microM) of the same molecule?
Answer: 41±2.6 % to control

Question: And the “TNFα (% to control)” value (TNFα; adenine 600 microM)?
Answer: 23±1.8 % to control

Question: What about the “IL-1β □ (%to control)” value (IL-1β; adenine 10 microM) of the same molecule?
Answer: 91±8.4 %to control

Question: What about the “IL-1β □ (%to control)” value (IL-1β; adenine 100 microM) of the same molecule?
Answer: 29±5.5 %to control

Question: What about the “IL-1β □ (%to control)” value (IL-1β; adenine 600 microM) of the same molecule?
Answer: 17±3.7 %to control

Question: What about the “COX-2 (% to control)” value (COX-2; adenine 10 microM) of the same molecule?
Answer: 81±4.4 % to control

Question: And the “COX-2 (% to control)” value (COX-2; adenine 100 microM)?
Answer: 59±3.5 % to control

Question: What about the “COX-2 (% to control)” value (COX-2; adenine 600 microM) of the same molecule?
Answer: 38±5.3 % to control

Question: What about the “sAβ level (% of control)” value (Amyloid β peptide; Neuro2A cells transfected with human APP695, adenine 10 microM) of the same molecule?
Answer: 89 ± 7.5 % of control

Question: And the “sAβ level (% of control)” value (Amyloid β peptide; Neuro2A cells transfected with human APP695, adenine 20 microM)?
Answer: 63 ± 2.2 % of control

Question: What about the “sAβ level (% of control)” value (Amyloid β peptide; Neuro2A cells transfected with human APP695, adenine 30 microM) of the same molecule?
Answer: 48.1 ± 1.7 % of control

Question: What about the “sAβ level (% of control)” value (Amyloid β peptide; Neuro2A cells transfected with human APP695, adenine 40 microM) of the same molecule?
Answer: 31.7 ± 5.1 % of control

Question: What about the “sAβ level (% of control)” value (Amyloid β peptide; Neuro2A cells transfected with human APP695, adenine 50 microM) of the same molecule?
Answer: 29.4 ± 3.6 % of control

Question: What about the “LC3-II/LC3-I ratio (relative to control)” value (LC3; adenine 10 microM) of the same molecule?
Answer: 1.2 ± 0.1 relative to control

Question: And the “LC3-II/LC3-I ratio (relative to control)” value (LC3; adenine 20 microM)?
Answer: 1.8 ± 0.3 relative to control

Question: And the “LC3-II/LC3-I ratio (relative to control)” value (LC3; adenine 30 microM)?
Answer: 2.8 ± 0.2 relative to control

Question: And the “LC3-II/LC3-I ratio (relative to control)” value (LC3; adenine 40 microM)?
Answer: 2.9 ± 0.2 relative to control

Question: What about the “LC3-II/LC3-I ratio (relative to control)” value (LC3; adenine 50 microM) of the same molecule?
Answer: 3.2 ± 0.3 relative to control

Question: What about the IC50 (Hep G2) of the same molecule?
Answer: 544 µM
